Test results: US9321722B2, “Bis-indolic derivatives, their uses in particular as antibacterials” (UNIVERSITE JOSEPH FOURIER, priority 2011, dated 2016)
≈ marks a conversion by molar mass, not a printed value. Where a name gives a salt, the structure may show the parent alone. Read-outs that look alike come from different tables or passages of the source.

Legend:
[1] = system: KB (human mouth carcinoma); test: In vitro cytotoxicity; format: cell-based; settings: read-out: % of cellular growth inhibition
Method: (§1) In vitro cytotoxicity was assayed on three cell lines—KB (human mouth carcinoma), MCR5 (human lung fibroblast) and HCT116 (human colon tumor). Results are presented in table III as % of cellular growth inhibition in presence of 10^−5 M and 10^−6 M of the tested bis-indolic derivatives.

[2] = system: MRC5 (human lung fibroblast); test: In vitro cytotoxicity; format: cell-based; settings: MRC5, read-out: % of cellular growth inhibition
Method: as §1

[3] = system: HCT116 (human colon tumor); test: In vitro cytotoxicity; format: cell-based; settings: HCT-116, read-out: % of cellular growth inhibition
Method: as §1

[4] = system: S. mitis CIP 103335; test: MIC microdilution (Table I-1); format: cell-based
Method: (§2) The microdilution method recommended by the Clinical and Laboratory Standard Institute [M07-A8, Vol. 29, N^o 2] was used. The activity of indolic compounds was tested against 29 bacterial strains belonging to 17 different species and 12 different genera (Staphylococcus, Streptococcus, Enterococcus, Listeria, Bacillus, Haemophilus, Escherichia, Klebsiella, Enterobacter, Serratia, Pseudomonas, and Acinetobacter). Bacterial inocula were prepared in Mueller Hinton broth (MH2, bioMerieux, Marcy L'Etoile, France), supplemented with 10% sheep blood for fastidious species (i.e., Streptococcus pneumoniae and Haemophilus influenzae). They were dispensed in 96 well microtiter plates (5×10^5 CFU/ml of final inoculum). Indolic compounds were added to the wells as to obtain two-fold serial concentrations (0.50-128 mg/L of final concentrations). Plates were incubated at 37° C. in ambient air, or at 37° C. in 5% CO2 enriched atmosphere for fastidious species. […] Drug-free cultures served as growth controls. Cultures receiving gentamicin, ciprofloxacin or cefotaxime served as positive controls.

[5] = system: S. pyogenes (group A) CIP 104226; test: MIC microdilution (Table I-1); format: cell-based
Method: as §2

[6] = system: Haemophilus influenzae ATCC 49766; test: MIC microdilution (Table I-1); format: cell-based; settings: Haemophilus influenzae, ATCC49766, 18 h
Method: as §2

[7] = system: Klebsiella pneumoniae ATCC 35657; test: MIC microdilution (Table I-1); format: cell-based
Method: as §2

[8] = system: E. faecalis ATCC 29212; test: MIC microdilution (Table I-1); format: cell-based
Method: as §2

[9] = system: Acinetobacter baumanii ATCC 19606; test: MIC microdilution (Table I-1); format: cell-based; settings: Acinetobacter baumannii, ATCC19606, read after 18 hours
Method: as §2

[10] = system: Bacillus subtilis CIP 5262; test: MIC microdilution (Table I-1); format: cell-based
Method: as §2

[11] = system: Serratia marcescens CIP 103551; test: MIC microdilution (Table I-1); format: cell-based; settings: CIP103551, read after 18 hours
Method: as §2

[12] = system: E. faecium CIP 54.32; test: MIC microdilution (Table I-1); format: cell-based
Method: as §2

[13] = system: Enterobacter cloacae ATCC 13047; test: MIC microdilution (Table I-1); format: cell-based; settings: ATCC13047, read after 18 hours
Method: as §2

[14] = system: Escherichia coli ATCC 25922; test: MIC microdilution (Table I-1); format: cell-based; settings: ATCC25922, read after 18 hours
Method: as §2

[15] = system: S. agalactiae (group B) ATCC 12400; test: MIC microdilution (Table I-1); format: cell-based
Method: as §2

[16] = system: Pseudomonas aeruginosa CIP 5933; test: MIC microdilution (Table I-1); format: cell-based; settings: CIP5933, read after 18 hours
Method: as §2

[17] = system: S. aureus ATCC 25923; test: MIC microdilution (Table I-1); format: cell-based; settings: Staphylococcus aureus, ATCC25923, read after 18 hours
Method: as §2

[18] = system: S. pneumoniae ATCC 49619; test: MIC microdilution (Table I-1); format: cell-based; settings: Streptococcus pneumoniae, ATCC49619, read after 18 hours
Method: as §2

[19] = system: Listeria innocua CIP 80.11; test: MIC microdilution (Table I-1); format: cell-based
Method: as §2

[20] = system: S. aureus CIP 65.25 (MRSA); test: MIC microdilution (Table I-1); format: cell-based, Staphylococcus aureus; settings: read after 18 hours
Method: as §2

[21] = system: S. aureus ATCC 29213; test: MIC microdilution (Table I-1); format: cell-based, Staphylococcus aureus
Method: as §2

[22] = system: S. aureus ATCC 33592 (MRSA); test: MIC microdilution (Table I-1); format: cell-based, Staphylococcus aureus; settings: read after 18 hours
Method: as §2

[23] = system: S. aureus ATCC 106414 (VISA); test: MIC microdilution (Table I-1); format: cell-based, Staphylococcus aureus; settings: read after 18 hours
Method: as §2

[24] = system: S. aureus CIP 65.6; test: MIC microdilution (Table I-1); format: cell-based, Staphylococcus aureus
Method: as §2

[25] = system: S. aureus ATCC 9144; test: MIC microdilution (Table I-1); format: cell-based, Staphylococcus aureus
Method: as §2

[26] = system: S. aureus CIP 103428; test: MIC microdilution (Table I-1); format: cell-based, Staphylococcus aureus
Method: as §2

[27] = system: S. aureus SA-1199B; test: MIC microdilution (Table I-1); format: cell-based, Staphylococcus aureus
Method: as §2

[28] = system: S. aureus ATCC 6538; test: MIC microdilution (Table I-1); format: cell-based, Staphylococcus aureus
Method: as §2

[29] = system: S. pneumoniae ATCC 6303; test: MIC microdilution (Table I-1); format: cell-based, Streptococcus pneumoniae
Method: as §2

[30] = system: S. epidermidis CIP 81.55; test: MIC microdilution (Table I-1); format: cell-based, Staphylococcus epidermidis
Method: as §2

[31] = system: S. epidermidis CIP 103627; test: MIC microdilution (Table I-1); format: cell-based, Staphylococcus epidermidis
Method: as §2

[32] = system: S. epidermidis ATCC 12228; test: MIC microdilution (Table I-1); format: cell-based, Staphylococcus epidermidis
Method: as §2

[33] = system: 29 bacterial strains belonging to 17 different species; test: Intrinsic antibacterial activity, MIC on the bacterial panel; format: cell-based; settings: result in words
Method: as §2

[34] = Staphylococcus aureus, read-out: MIC

O=C(C(=O)N1CCNCC1c1c[nH]c2ccc(Br)cc12)c1c[nH]c2ccc(Br)cc12 (stereo not shown) [Compound 7, 1-(5-bromo-1H-indol-3-yl)-2-(2-(5-bromo-1H-indol-3-yl)piperazin-1-yl)ethane-1,2-dione hydrochloride]
inhibition at 1 µM [1]: 0%
inhibition at 10 µM [1]: 4 ± 11%
inhibition at 1 µM [2]: 0%
inhibition at 10 µM [2]: 0%
inhibition at 1 µM [3]: 0%
inhibition at 10 µM [3]: 22 ± 7%

CC(C)(C)OC(=O)NCC(NC(=O)C(F)(F)F)c1c[nH]c2ccc(Br)cc12 (stereo not shown) [Compound 13, tert-Butyl(2-(5-bromo-1H-indol-3-yl)-2-(2,2,2-trifluoroacetamido)ethyl)carbamate]
MIC ([4]; Streptococcus mitis, CIP103335, read after 18 hours, read-out: MIC): > 128 µg/mL
MIC ([5]; Streptococcus pyogenes, CIP104226, read after 18 hours, read-out: MIC): 128 µg/mL (≈ 284 µM)
MIC [6]: > 128 µg/mL
MIC ([7]; ATCC35657, read after 18 hours, read-out: MIC): > 128 µg/mL
MIC ([8]; Enterococcus faecalis, ATCC29212, read after 18 hours, read-out: MIC): > 128 µg/mL
MIC [9]: > 128 µg/mL
MIC ([10]; CIP5262, read after 18 hours, read-out: MIC): 128 µg/mL (≈ 284 µM)
MIC [11]: > 128 µg/mL
MIC ([12]; Enterococcus faecium, CIP54, read after 18 hours, read-out: MIC): > 128 µg/mL
MIC [13]: > 128 µg/mL
MIC [14]: > 128 µg/mL
MIC ([15]; Streptococcus agalactiae, ATCC12400, read after 18 hours, read-out: MIC): 128 µg/mL (≈ 284 µM)
MIC [16]: > 128 µg/mL
MIC [17]: > 128 µg/mL
MIC [18]: 128 µg/mL (≈ 284 µM)
MIC ([19]; CIP80, read after 18 hours, read-out: MIC): > 128 µg/mL
MIC [20, 34]: > 128 µg/mL
MIC ([21]; Staphylococcus aureus, ATCC29213, read after 18 hours, read-out: MIC): 128 µg/mL (≈ 284 µM)
MIC [22, 34]: > 128 µg/mL
MIC [23, 34]: > 128 µg/mL
MIC ([24]; Staphylococcus aureus, CIP65, read after 18 hours, read-out: MIC): > 128 µg/mL
MIC ([25]; Staphylococcus aureus, ATCC9144, read after 18 hours, read-out: MIC): > 128 µg/mL
MIC ([26]; Staphylococcus aureus, CIP103428, read after 18 hours, read-out: MIC): 64 µg/mL (≈ 142 µM)
MIC ([27]; Staphylococcus aureus, SA1199B, 18 h): 64 µg/mL (≈ 142 µM)
MIC ([28]; Staphylococcus aureus, ATCC6538, read after 18 hours, read-out: MIC): 64 µg/mL (≈ 142 µM)
MIC ([29]; Streptococcus pneumoniae, ATCC6303, read after 18 hours, read-out: MIC): 128 µg/mL (≈ 284 µM)
MIC ([30]; Staphylococcus epidermidis, CIP81, read after 18 hours, read-out: MIC): > 128 µg/mL
MIC ([31]; Staphylococcus epidermidis, CIP103627, read after 18 hours, read-out: MIC): > 128 µg/mL
MIC ([32]; Staphylococcus epidermidis, ATCC12228, read after 18 hours, read-out: MIC): > 128 µg/mL
intrinsic antibacterial activity [33]: lack of intrinsic antibacterial activity

tert-Butyl(2-(4-bromo)benzamido-2-(5-bromo-1H-indol-3-yl)ethyl)carbamate [Compound 12a]
MIC ([4]; read after 18 hours): >128 µg/mL
MIC ([5]; read after 18 hours): >128 µg/mL
MIC ([7]; read after 18 hours): 64 µg/mL
MIC ([8]; read after 18 hours): >128 µg/mL
MIC ([10]; read after 18 hours): >128 µg/mL
MIC ([12]; read after 18 hours): >128 µg/mL
MIC ([15]; read after 18 hours): 64 µg/mL
MIC ([19]; read after 18 hours): >128 µg/mL
MIC [20]: >32 µg/mL
MIC ([21]; read after 18 hours): >32 µg/mL
MIC [22]: >32 µg/mL
MIC [23]: >32 µg/mL
MIC ([24]; read after 18 hours): >32 µg/mL
MIC ([25]; read after 18 hours): >32 µg/mL
MIC ([26]; read after 18 hours): >32 µg/mL
MIC ([27]; S. aureus SA-1199B, read after 18 hours): >32 µg/mL
MIC ([28]; read after 18 hours): >32 µg/mL
MIC ([29]; read after 18 hours): 128 µg/mL
MIC ([30]; read after 18 hours): >32 µg/mL
MIC ([31]; read after 18 hours): >32 µg/mL
MIC ([32]; read after 18 hours): >32 µg/mL
intrinsic antibacterial activity [33]: lack of intrinsic antibacterial activity
